Experimental data taken from patent US10975083B2, “Blood-brain barrier-penetrant dopamine-β-hydroxylase inhibitors” (BIAL—PORTELA & Cᵃ, S.A., priority 2016, dated 2021).
Where two headings read alike, the source gives them in different places.

Tests used:
in vitro = settings: dog, MDCK, pH 7.4
DβH = biological target: T1, DβH (Homo sapiens, UniProt P09172); assay: DβH inhibition cell assay (SK-N-SH cellular homogenates, tyramine to octopamine); type: biochemical; settings: for remaining activity at 0.1 µM: inhibitor 0.1 μM, read-out: DβH activity in % of Ctrl (0.1 μM); for remaining activity at 1 µM: read-out: DβH activity in % of Ctrl (1 μM); for remaining activity at 10 µM: inhibitor 10 μM, read-out: DβH activity in % of Ctrl (10 μM)
T1 construct: reaction mixture (total volume 500 μl) contained: cellular homogenate (75 μg total protein); host or cells: SK-N-SH cell homogenate
T1 sequence (P09172 1-617): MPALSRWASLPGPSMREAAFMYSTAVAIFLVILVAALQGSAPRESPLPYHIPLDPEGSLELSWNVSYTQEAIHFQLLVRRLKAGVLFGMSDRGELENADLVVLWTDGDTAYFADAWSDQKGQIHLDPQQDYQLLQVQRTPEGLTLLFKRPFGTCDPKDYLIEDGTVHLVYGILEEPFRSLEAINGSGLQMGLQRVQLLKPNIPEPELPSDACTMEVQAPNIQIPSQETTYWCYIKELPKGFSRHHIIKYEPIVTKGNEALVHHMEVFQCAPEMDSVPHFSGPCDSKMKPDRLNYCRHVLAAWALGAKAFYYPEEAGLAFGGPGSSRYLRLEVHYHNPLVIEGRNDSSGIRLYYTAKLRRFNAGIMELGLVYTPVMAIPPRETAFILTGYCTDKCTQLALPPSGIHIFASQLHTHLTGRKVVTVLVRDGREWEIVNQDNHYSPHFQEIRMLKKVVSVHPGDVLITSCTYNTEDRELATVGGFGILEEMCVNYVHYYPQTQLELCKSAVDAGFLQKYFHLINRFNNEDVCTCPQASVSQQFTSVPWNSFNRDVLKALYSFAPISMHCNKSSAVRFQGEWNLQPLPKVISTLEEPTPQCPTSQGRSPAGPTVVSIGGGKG

[1] = inhibitor 1 μM, SK-N-SH cell homogenate

Papp A→B at 30 min, 50 μM (in vitro) [×10⁻⁶ cm/s] | remaining activity at 0.1 µM (DβH; SK-N-SH cell homogenate) [%] | remaining activity at 1 µM (DβH; [1]) [%] | remaining activity at 10 µM (DβH; SK-N-SH cell homogenate) [%] | SMILES | remaining activity at 1 µM (DβH) [%]
79.4 | 59.7 | 2.4 | – | NC(=S)N1CC2CC2(c2ccc(F)cc2F)C1 (stereo not drawn) [Example 37, 1-(2,4-difluorophenyl)-3-azabicyclo[3.1.0]hexane-3-carbothioamide] | –
79.4 | 3.3 | 0 | – | NC(=S)N1CC2CC2(c2cc(F)ccc2F)C1 (stereo not drawn) [Example 38, 1-(2,5-difluorophenyl)-3-azabicyclo[3.1.0]hexane-3-carbothioamide] | –
200 | 43.6 | 0 | – | CNC(=S)N1CC2(c3cc(F)cc(F)c3)CC2C1=O (stereo not drawn) [Example 43, 1-(3,5-Difluorophenyl)-N-methyl-4-oxo-3-azabicyclo[3.1.0]hexane-3-carbothioamide] | –
100 | – | 27.3 | – | Fc1ccc(F)c(C2Cc3c[nH]c(=S)n3C2)c1 (stereo not drawn) [Example 52, 6-(2,5-difluorophenyl)-6,7-dihydro-2H-pyrrolo[1,2-c]imidazole-3(5H)-thione] | –
– | 0.5 | 0 | – | Fc1ccc(Br)c(F)c1[C@]12C[C@H]1c1c[nH]c(=S)n1C2 [Example 115, (5aS,6aR)-5a-(3-bromo-2,6-difluorophenyl)-5,5a,6,6a-tetrahydrocyclopropa[3,4]pyrrolo[1,2-c]imidazole-3 (2H)-thione] | –
– | 24.8 | 0 | – | Cn1cc2n(c1=S)C[C@@]1(c3cc(Cl)ccc3F)C[C@@H]21 [Example 116, (5aS,6aR)-5a-(5-chloro-2-fluorophenyl)-2-methyl-5,5a,6,6a-tetrahydrocyclopropa[3,4]pyrrolo[1,2-c]imidazole-3 (2H)-thione] | –
– | 6.4 | 0 | – | Fc1ccc(Br)c(F)c1[C@@H]1Cc2c[nH]c(=S)n2C1 [Example 117, (S)-6-(3-bromo-2,6-difluorophenyl)-2,5,6,7-tetrahydro-3H-pyrrolo[1,2-c]imidazole-3-thione] | –
– | 33.8 | 0 | – | Fc1ccc(Br)c(F)c1[C@H]1Cc2c[nH]c(=S)n2C1 [Example 118, (R)-6-(3-bromo-2,6-difluorophenyl)-2,5,6,7-tetrahydro-3H-pyrrolo[1,2-c]imidazole-3-thione] | –
– | 49.1 | 4.5 | – | Fc1ccc(Br)c(F)c1[C@]12C[C@H]1c1n[nH]c(=S)n1C2 [Example 119, (5aS,6aR)-5a-(3-bromo-2,6-difluorophenyl)-5,5a,6,6a-tetrahydrocyclopropa[3,4]pyrrolo[2,1-c][1,2,4]triazole-3(2H)-thione] | –
– | 86.4 | 21.8 | – | Fc1ccc(Br)cc1[C@]12C[C@H]1c1n[nH]c(=S)n1C2 [Example 120, (5aS,6aR)-5a-(5-bromo-2-fluorophenyl)-5,5a,6,6a-tetrahydrocyclopropa[3,4]pyrrolo[2,1-c][1,2,4]triazole-3(2H)-thione] | –
– | 5.2 | 0 | – | Cc1[nH]c(=S)n2c1[C@@H]1C[C@]1(c1c(F)ccc(Br)c1F)C2 [Example 121, (5aS,6aR)-5a-(3-bromo-2,6-difluorophenyl)-1-methyl-5,5a,6,6a-tetrahydrocyclopropa[3,4]pyrrolo[1,2-c]imidazole-3 (2H)-thione] | –

Second part, the compound before the results:

SMILES | Papp A→B at 30 min, 50 μM (in vitro) [×10⁻⁶ cm/s] | remaining activity at 0.1 µM (DβH; SK-N-SH cell homogenate) [%] | remaining activity at 1 µM (DβH; [1]) [%] | remaining activity at 10 µM (DβH; SK-N-SH cell homogenate) [%] | remaining activity at 1 µM (DβH) [%]
NC(=S)N1CCC(c2ccccc2)C1 (stereo not drawn) [Example 1, 3-Phenylpyrrolidine-1-carbothioamide] | 63.1 | 75.6 | 42.4 | 4 | –
NC(=S)N1CCC(c2cccs2)C1 (stereo not drawn) [Example 2, 3-(thiophen-2-yl)pyrrolidine-1-carbothioamide] | 126 | 54.9 | – | 0 | –
CC1(c2ccccc2)CCN(C(N)=S)C1 (stereo not drawn) [Example 7, 3-methyl-3-phenylpyrrolidine-1-carbothioamide] | 100 | 84.8 | 37.7 | 7.5 | –
NC(=S)N1CC2CC2(c2ccccc2)C1 (stereo not drawn) [Example 8, 1-phenyl-3-azabicyclo[3.1.0]hexane-3-carbothioamide] | 126 | – | 14.5 | 2.2 | –
NC(=S)N1CCC(C2CCCCC2)C1 (stereo not drawn) [Example 9, 3-cyclohexylpyrrolidine-1-carbothioamide] | 251 | – | 30.9 | 5.3 | –
Cc1ccc(C2CCN(C(N)=S)C2)s1 (stereo not drawn) [Example 10, 3-(5-methylthiophen-2-yl)pyrrolidine-1-carbothioamide] | 126 | 54.9 | 2.7 | 0 | –
NC(=S)N1CCC(c2cc(F)cc(F)c2)C1 (stereo not drawn) [Example 12, 3-(3,5-Difluorophenyl)pyrrolidine-1-carbothioamide] | 79.4 | 63 | 11.5 | 0 | –
NC(=S)N1CCC(c2ccsc2)C1 (stereo not drawn) [Example 15, 3-(thiophen-3-yl)pyrrolidine-1-carbothioamide] | 79.4 | 50.1 | 9.3 | – | –
NC(=S)N1CCC(c2ccco2)C1 (stereo not drawn) [Example 17, 3-(furan-2-yl)pyrrolidine-1-carbothioamide] | 79.4 | – | 56.8 | – | –
NC(=S)N1CCC(c2c(F)c(F)cc(F)c2F)C1 (stereo not drawn) [Example 23, 3-(2,3,5,6-Tetrafluorophenyl)pyrrolidine-1-carbothioamide] | 100 | 5.9 | 0 | – | –
NC(=S)N1CCC(c2cc(F)cc(F)c2F)C1 (stereo not drawn) [Example 24, 3-(2,3,5-trifluorophenyl)pyrrolidine-1-carbothioamide] | 100 | 40.2 | 15.9 | – | –
NC(=S)N1CC[C@@H](c2cc(F)cc(F)c2)C1 [Example 25, (S)-3-(3,5-difluorophenyl)pyrrolidine-1-carbothioamide] | 100 | 46.1 | 6.7 | – | –
NC(=S)N1CC[C@H](c2cc(F)cc(F)c2)C1 [Example 26, (R)-3-(3,5-difluorophenyl)pyrrolidine-1-carbothioamide] | 100 | – | 21.4 | – | –
NC(=S)N1C[C@H]2C[C@@]2(c2cccs2)C1 [Example 27, (1S,5S)-1-(thiophen-2-yl)-3-azabicyclo[3.1.0]hexane-3-carbothioamide] | 126 | – | 20.8 | – | –
CNC(=S)N1C[C@@H]2C[C@]2(c2cc(F)cc(F)c2)C1 [Example 30, (1S,5R)-1-(3,5-Difluorophenyl)-N-methyl-3-azabicyclo[3.1.0]hexane-3-carbothioamide] | 126 | 3.3 | 2.8 | – | –
CNC(=S)N1CCC(c2ccccc2)C1 (stereo not drawn) [Example 31, N-methyl-3-phenylpyrrolidine-1-carbothioamide] | 79.4 | – | – | 15.8 | –
CNC(=S)N1CCC(c2cc(F)cc(F)c2)C1 (stereo not drawn) [Example 32, 3-(3,5-difluorophenyl)-N-methylpyrrolidine-1-carbothioamide] | 100 | 57.3 | 4.7 | – | –
NC(=S)N1CC2CC2(c2cc(F)cc(F)c2)C1 (stereo not drawn) [Example 34, 1-(3,5-difluorophenyl)-3-azabicyclo[3.1.0]hexane-3-carbothioamide] | 63.1 | 12.3 | 0 | – | –
CNC(=S)N1CC(c2cc(F)cc(F)c2)CC1=O (stereo not drawn) [Example 42, 4-(3,5-difluorophenyl)-N-methyl-2-oxopyrrolidine-1-carbothioamide] | 100 | – | 44.1 | – | –
S=c1[nH]cc2n1CC(c1ccccc1)C2 (stereo not drawn) [Example 49, 6-phenyl-6,7-dihydro-2H-pyrrolo[1,2-c]imidazole-3(5H)-thione] | 100 | – | – | – | 60.6
Fc1cc(F)cc(C2Cc3c[nH]c(=S)n3C2)c1 (stereo not drawn) [Example 50, 6-(3,5-difluorophenyl)-6,7-dihydro-2H-pyrrolo[1,2-c]imidazole-3(5H)-thione] | 126 | 89.3 | 36.6 | 6.8 | –
Fc1ccc(C2Cc3c[nH]c(=S)n3C2)c(F)c1 (stereo not drawn) [Example 51, 6-(2,4-Difluorophenyl)-6,7-dihydro-2H-pyrrolo[1,2-c]imidazole-3(5H)-thione] | 100 | – | – | – | 54.4
CC(C)NCC(O)COc1cccc2ccccc12 (stereo not drawn) [Propranolol, reference compound] | 63.1 | – | – | – | –
